Among the data in patent US9688661B2, “Substituted pyrroles active as kinases inhibitors” (NERVIANO MEDICAL SCIENCES S.R.L., priority 2012, dated 2017) are IC50 values, retold here.

Experiment [1] has as its system JAK2 independent human chronic myelogenous leukaemia cell line K562. Description: Cell proliferation assay, K562. Type of experiment: cell-based. To be noted: K562 cells, 72 hours, CellTiter-Glo, read-out: IC50 K-562. On the technique in general: In ATP-based viability assays light output follows the ATP content of the culture.
Experiment [2] deals with JAK2 dependent human megakaryoblastic leukemia cell line SET-2. Description: Cell proliferation assay, SET-2. Type of experiment: cell-based. The following applies: SET-2 cells, 72 hours, CellTiter-Glo.
In experiment [3] the target is JAK2 kinase domain (Homo sapiens (Human), UniProt O60674). Description: Biochemical assay for inhibitors of JAK kinase activity, JAK2. To be noted: JAK2 kinase domain 1 nM, 60 μM ATP. Here is the method:
(§1) Specific JAK2, JAK1 or JAK3 peptide substrates are trans-phosphorylated by JAK kinases in the presence of ATP traced with 33P-γ-ATP. At the end of the phosphorylation reaction, the unreacted ATP, cold and radioactive, is captured by an excess of dowex ion exchange resin that eventually settles by gravity to the bottom of the reaction plate. The supernatant is subsequently withdrawn and transferred into a counting plate that is then evaluated by β-counting.
(§2) 500 g of wet resin (SIGMA, custom prepared resin DOWEX 1×8 200-400 mesh, 2.5 Kg) are weighed out and diluted 2 to 1 in 150 mM sodium formate, pH 3.00. The resin is allowed to settle down overnight and then the supernatant is discarded. After three washes as above over a couple of days, the resin is allowed to settle and two volumes (with respect to the resin volume) of 150 mM sodium formate buffer are added.
(§3) Kinase buffer was composed of 50 mM HEPES pH 7.5 containing 10 mM MgCl2, 2.5 mM DTT, 10 μM Na3VO4 and 0.2 mg/mL BSA.
(§4) The peptidic substrate was purchased from American Peptide Company (Sunnyvale, Calif.).
(§5) Data are analyzed by Symix Assay Explorer software (Symix Technologies Inc.) that provides sigmoidal fitting algorithm of the 8 points dilutions curves for IC50 determination.

Experiment [4] addresses JAK1 kinase domain (Homo sapiens (Human), UniProt P23458). The experiment can be described thus: Biochemical assay for inhibitors of JAK kinase activity, JAK1. To be noted: preactivated JAK1 kinase domain 2.5 nM, 100 μM ATP. As to the method: as §1, §2, §3
Assays were performed with the JAK1 kinase domain (residues 861-1152 of the 1154 amino acid long full-length sequence, accession number P23458 of UniProtKB/Swiss-Prot database).
The JAK1 kinase domain was preactivated with ATP for 1 h at 28° C. in order to obtain a linear kinetic.
as §4, §5

The target of experiment [5] is TYK2 kinase domain (Homo sapiens (Human), UniProt P29597). The experiment can be described thus: Biochemical assay for inhibitors of JAK kinase activity, TYK2. To be noted: TYK2 kinase domain 3 nM, 31 μM ATP. Here is the method: as §1, §2, §3, §4, §5
TYK2 kinase domain, sequence (P29597 833-1187): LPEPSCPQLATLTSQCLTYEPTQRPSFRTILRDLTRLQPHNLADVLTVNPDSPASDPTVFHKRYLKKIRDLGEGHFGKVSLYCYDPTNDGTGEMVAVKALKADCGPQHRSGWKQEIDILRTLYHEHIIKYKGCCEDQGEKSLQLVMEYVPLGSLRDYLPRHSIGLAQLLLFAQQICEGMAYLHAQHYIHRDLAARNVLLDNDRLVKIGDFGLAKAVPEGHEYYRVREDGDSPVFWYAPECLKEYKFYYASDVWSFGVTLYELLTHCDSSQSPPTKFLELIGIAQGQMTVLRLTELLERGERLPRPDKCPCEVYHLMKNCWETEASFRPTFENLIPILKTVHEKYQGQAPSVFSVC

JAK2 kinase domain, sequence (O60674 849-1124): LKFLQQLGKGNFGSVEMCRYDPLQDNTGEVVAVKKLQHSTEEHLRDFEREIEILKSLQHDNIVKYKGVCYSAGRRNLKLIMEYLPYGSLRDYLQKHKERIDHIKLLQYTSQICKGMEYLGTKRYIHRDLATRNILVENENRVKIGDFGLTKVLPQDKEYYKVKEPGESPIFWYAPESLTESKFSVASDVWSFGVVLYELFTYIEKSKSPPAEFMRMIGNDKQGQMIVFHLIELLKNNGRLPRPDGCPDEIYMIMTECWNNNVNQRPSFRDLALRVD
JAK1 kinase domain, sequence (P23458 861-1152): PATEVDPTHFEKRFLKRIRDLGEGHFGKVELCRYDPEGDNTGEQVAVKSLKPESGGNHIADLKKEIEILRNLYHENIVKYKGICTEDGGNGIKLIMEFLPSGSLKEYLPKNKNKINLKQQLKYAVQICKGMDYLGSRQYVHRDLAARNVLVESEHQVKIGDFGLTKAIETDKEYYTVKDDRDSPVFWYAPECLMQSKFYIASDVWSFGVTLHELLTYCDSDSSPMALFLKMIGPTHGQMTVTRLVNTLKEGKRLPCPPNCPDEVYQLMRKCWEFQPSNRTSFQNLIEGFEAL

As for `CCc1ccc(Cl)cc1-c1[nH]c(-c2cc(N)ncn2)cc1C#N` [compd 9, 5-(6-Aminopyrimidin-4-yl)-2-(5-chloro-2-ethylphenyl)-1H-pyrrole-3-carbonitrile], the half-inhibitory concentration (IC50) (usually the concentration that inhibits the measured activity by half) in experiment [1] worked out at 7230 nM; in experiment [2] it was 1270 nM; in experiment [3], 23 nM; in experiment [4] it was 141 nM.

For the compound `CCc1ccc(Cl)cc1-n1cc(-c2cc(N)ncn2)cc1C#N` [compd 47, 4-(6-Aminopyrimidin-4-yl)-1-(5-chloro-2-ethylphenyl)-1H-pyrrole-2-carbonitrile], the IC50 was more than 10000 nM in experiment [1], 3070 nM in experiment [2], 66 nM in experiment [3] and 869 nM in experiment [4].

As for `Cc1ccc(Cl)cc1-n1cc(-c2ncnc3[nH]ccc23)cc1C#N` [compd 63, 1-(5-Chloro-2-methylphenyl)-4-(7H-pyrrolo[2,3-d]pyrimidin-4-yl)-1H-pyrrole-2-carbonitrile], the IC50 in experiment [1] came to 1890 nM; in experiment [5] it was 13 nM; in experiment [2] it was 1380 nM; in experiment [3], 4 nM; in experiment [4] it was 15 nM.

As for `N#Cc1cc(-c2ncnc3[nH]ccc23)cn1-c1cc(C(F)(F)F)ccc1Cl` [compd 72, 1-[2-Chloro-5-(trifluoromethyl)phenyl]-4-(7H-pyrrolo[2,3-d]pyrimidin-4-yl)-1H-pyrrole-2-carbonitrile], the half-inhibitory concentration (IC50) in experiment [1] is 6610 nM; in experiment [5], 38 nM; in experiment [2], 510 nM; in experiment [3] it was 7 nM; in experiment [4], 17 nM.

Turning to `Cc1ccc(Cl)cc1-c1cc(-c2ncnc3[nH]ccc23)[nH]c1C(N)=O` [compd 123, 3-(5-Chloro-2-methylphenyl)-5-(7H-pyrrolo[2,3-d]pyrimidin-4-yl)-1H-pyrrole-2-carboxamide], the IC50 was found to be 3760 nM in experiment [1]; 23 nM in experiment [5]; 460 nM in experiment [2]; 5 nM in experiment [3]; 33 nM in experiment [4].

Take `CNC(=O)c1[nH]c(-c2ncnc3[nH]ccc23)cc1-c1cc(Cl)ccc1C` [compd 129, 3-(5-Chloro-2-methylphenyl)-N-methyl-5-(7H-pyrrolo[2,3-d]pyrimidin-4-yl)-1H-pyrrole-2-carboxamide]: the IC50 in experiment [1] was more than 10000 nM; in experiment [5] it was 70 nM; in experiment [2] it was 690 nM; in experiment [3], 9 nM; in experiment [4] it was 38 nM.

As to `Cc1ccc(Cl)cc1-c1[nH]c(-c2cc(N)ncn2)cc1C(N)=O` [compd 189, 5-(6-Aminopyrimidin-4-yl)-2-(5-chloro-2-methylphenyl)-1H-pyrrole-3-carboxamide], the IC50 in experiment [1] is more than 10000 nM; in experiment [2] it was 890 nM; in experiment [3], 19 nM; in experiment [4] it was 139 nM.

With `NC(=O)c1cc(-c2cc(N)ncn2)[nH]c1-c1cc(C(F)(F)F)ccc1Cl` [compd 204, 5-(6-Aminopyrimidin-4-yl)-2-[2-chloro-5-(trifluoromethyl)phenyl]-1H-pyrrole-3-carboxamide], the concentration for half-maximal inhibition (IC50) in experiment [1] was more than 10000 nM; in experiment [2], 450 nM; in experiment [3] it was 12 nM; in experiment [4], 167 nM.

For the compound `CNc1cc(-c2cc(C(N)=O)c(-c3cc(C(F)(F)F)ccc3Cl)[nH]2)ncn1` [compd 205, 2-[2-Chloro-5-(trifluoromethyl)phenyl]-5-[6-(methylamino)pyrimidin-4-yl]-1H-pyrrole-3-carboxamide], the IC50 in experiment [1] was more than 10000 nM; in experiment [2] it was 650 nM; in experiment [3], 19 nM; in experiment [4], 104 nM.

Take `NC(=O)c1cc(-c2ncnc3[nH]ccc23)[nH]c1-c1cc(C(F)(F)F)ccc1Cl` [compd 206, 2-[2-Chloro-5-(trifluoromethyl)phenyl]-5-(7H-pyrrolo[2,3-d]pyrimidin-4-yl)-1H-pyrrole-3-carboxamide]: the 50% inhibitory concentration (IC50) in experiment [1] was more than 10000 nM; in experiment [2], 700 nM; in experiment [3] it was 19 nM; in experiment [4], 140 nM.

`Cc1ccc(C(F)(F)F)cc1-c1[nH]c(-c2cc(N)ncn2)cc1C(N)=O` [compd 211, 5-(6-Aminopyrimidin-4-yl)-2-[2-methyl-5-(trifluoromethyl)phenyl]-1H-pyrrole-3-carboxamide]: the concentration for half-maximal inhibition (IC50) is more than 10000 nM in experiment [1], 590 nM in experiment [2], 11 nM in experiment [3] and 108 nM in experiment [4].

For `CNc1cc(-c2cc(C(N)=O)c(-c3cc(C(F)(F)F)ccc3C)[nH]2)ncn1` [compd 212, 5-[6-(Methylamino)pyrimidin-4-yl]-2-[2-methyl-5-(trifluoromethyl)phenyl]-1H-pyrrole-3-carboxamide], the IC50 is more than 10000 nM in experiment [1], 460 nM in experiment [2], 21 nM in experiment [3] and 48 nM in experiment [4].

As to `Cc1ccc(Cl)cc1-n1cc(-c2cc(N)ncn2)cc1C(N)=O` [compd 227, 4-(6-Aminopyrimidin-4-yl)-1-(5-chloro-2-methylphenyl)-1H-pyrrole-2-carboxamide], the IC50 was more than 10000 nM in experiment [1], 2360 nM in experiment [2], 73 nM in experiment [3] and 595 nM in experiment [4].

`CCc1ccc(Cl)cc1-n1cc(-c2cc(N)ncn2)cc1C(N)=O` [compd 235, 4-(6-Aminopyrimidin-4-yl)-1-(5-chloro-2-ethylphenyl)-1H-pyrrole-2-carboxamide]: the IC50 is 32 nM in experiment [5] and 79 nM in experiment [4].

In the case of `NC(=O)c1cc(-c2cc(N)ncn2)cn1-c1cc(C(F)(F)F)ccc1Cl` [compd 242, 4-(6-Aminopyrimidin-4-yl)-1-[2-chloro-5-(trifluoromethyl)phenyl]-1H-pyrrole-2-carboxamide], the IC50 is more than 10000 nM in experiment [1], 1570 nM in experiment [2], 71 nM in experiment [3] and 1080 nM in experiment [4].

Turning to `NC(=O)c1cc(-c2ncnc3[nH]cnc23)cn1-c1cc(C(F)(F)F)ccc1Cl` [compd 245, 1-[2-Chloro-5-(trifluoromethyl)phenyl]-4-(9H-purin-6-yl)-1H-pyrrole-2-carboxamide], the IC50 was more than 10000 nM in experiment [1], 1230 nM in experiment [2], 27 nM in experiment [3] and 386 nM in experiment [4].

Compound `NC(=O)c1cc(-c2ncnn3cccc23)cn1-c1cc(C(F)(F)F)ccc1Cl` [compd 247, 1-[2-Chloro-5-(trifluoromethyl)phenyl]-4-(pyrrolo[2,1-f][1,2,4]triazin-4-yl)-1H-pyrrole-2-carboxamide] displayed a concentration for half-maximal inhibition (IC50) in experiment [4] of 991 nM.

As to `CCc1ccc(Cl)cc1-c1[nH]c(-c2ncnc3[nH]ccc23)cc1C(=O)NC` [compd 303, 2-(5-Chloro-2-ethylphenyl)-N-methyl-5-(7H-pyrrolo[2,3-d]pyrimidin-4-yl)-1H-pyrrole-3-carboxamide], the IC50 in experiment [1] worked out at 3760 nM; in experiment [5], 12 nM; in experiment [2] it was 140 nM; in experiment [3], 1 nM.

As for `CNC(=O)c1cc(-c2ncnc3[nH]ccc23)[nH]c1-c1cc(C(F)(F)F)ccc1C` [compd 318, 2-[2-Methyl-5-(trifluoromethyl)phenyl]-N-methyl-5-(7H-pyrrolo[2,3-d]pyrimidin-4-yl)-1H-pyrrole-3-carboxamide], the IC50 was more than 10000 nM in experiment [1], 350 nM in experiment [2], 25 nM in experiment [3] and 63 nM in experiment [4].
